Experimental data reported in the Deep4Chem optical property database.

Test: photoluminescence quantum yield (fraction); solvent given as SMILES
[1] = in O=P(c1ccccc1)(c1ccccc1)c1ccccc1Oc1ccccc1P(=O)(c1ccccc1)c1ccccc1

COc1ccc(-c2cc3c(ccc4sc5ccc6sc(-c7ccc(C#N)cc7)cc6c5c43)s2)cc1
photoluminescence quantum yield (in ClCCl): 0.09

CC(C)(C)Nc1cc2oc3cc(NC(C)(C)C)c(F)cc3c(=O)c2cc1F
photoluminescence quantum yield (in CCO): 0.31

C[Si]1(C)C(c2ccccc2)=Cc2ccccc21
photoluminescence quantum yield (in ClCCl): 0.55

Cn1cc(-c2nc3ccccc3nc2C#Cc2ccccc2)c2ccccc21
photoluminescence quantum yield (in ClCCl): 0.16

c1ccc(-c2cc(-c3ccc(N4c5ccccc5C(c5ccccc5)(c5ccccc5)c5ccccc54)cc3)nc(-c3ccccc3)n2)cc1
photoluminescence quantum yield [1]: 0.7

CCOC(=O)c1cc(C(=O)OCC)c2cc(N)ccc2n1
photoluminescence quantum yield (in CCO): 0.4

CC(C)CCCC(C)CCN1C(=O)c2ccc3c(-c4ccccc4)c4c5ccc6c7c(ccc(c(-c8ccccc8)c4c4ccc(c2c34)C1=O)c75)C(=O)N(CCC(C)CCCC(C)C)C6=O (centres undefined)
photoluminescence quantum yield (in ClCCl): 0.13

COc1ccc(OC)cc1
photoluminescence quantum yield (in C1CCCCC1): 0.22

CCCCc1c2c(nc3ccccc13)-c1cc3c(cc1CC2)-c1nc2ccccc2c(CCCC)c1CC3
photoluminescence quantum yield (in ClC(Cl)Cl): 0.697

COc1ccc(-c2cnc3nn4ccccc4c3n2)cc1
photoluminescence quantum yield (in C1CCOC1): 0.83

CN(C)CCN(Cc1c2ccccc2cc2ccccc12)c1ccc([N+](=O)[O-])cc1
photoluminescence quantum yield (in C1CCCCC1): 0.0008
photoluminescence quantum yield (in C1CCOC1): 0.0015
photoluminescence quantum yield (in CC#N): 0.0143
photoluminescence quantum yield (in CC(C)=O): 0.022
photoluminescence quantum yield (in CCO): 0.023
photoluminescence quantum yield (in CN(C)C=O): 0.0411
photoluminescence quantum yield (in CO): 0.0606
photoluminescence quantum yield (in ClC(Cl)Cl): 0.0272

CCCCCCN1C(=O)c2cccc3c(-c4cc5ccccc5s4)ccc(c23)C1=O
photoluminescence quantum yield (in ClC(Cl)Cl): 0.28

Cc1cc(=O)oc2c1cc(Br)c1occ(C)c12
photoluminescence quantum yield (in C1CCCCC1): 0.0006
photoluminescence quantum yield (in C1COCCO1): 0.001
photoluminescence quantum yield (in CC#N): 0.002
photoluminescence quantum yield (in CCO): 0.004
photoluminescence quantum yield (in OCC(F)(F)F): 0.004

CCN(CC)c1ccc2cc3c([o+]c2c1)/C(=C/Nc1ccccc1)CCC3
photoluminescence quantum yield (in CCO): 0.18
photoluminescence quantum yield (in ClC(Cl)Cl): 0.22
photoluminescence quantum yield (in ClCCl): 0.31

Cc1ccc(S(=O)(=O)/N=c2\oc3cccc4c5c(-c6ccccc6)oc6cccc(c(c2-c2ccccc2)c34)c65)cc1
photoluminescence quantum yield (in ClC(Cl)Cl): 0.64

COCCC1(CCOC)c2cc(-c3ccc(OC)cc3)ccc2-c2ccc(-c3ccc4c(c3)C(CCOC)(CCOC)c3cc(-c5ccc(OC)cc5)ccc3-4)cc21
photoluminescence quantum yield (in CN(C)C=O): 0.95

CC(C)(C)c1ccc(C2=c3sc(-c4ccc(C(C)(C)C)cc4)cc3=[N+]3C2=Nc2c(-c4ccc(C(C)(C)C)cc4)c4sc(-c5ccc(C(C)(C)C)cc5)cc4n2[B-]3(F)F)cc1
photoluminescence quantum yield (in ClC(Cl)Cl): 0.12

N#Cc1c(N2CCCCC2)cc(-c2cccs2)c2c1-c1cccc3cccc-2c13
photoluminescence quantum yield (in O): 0.3

CCOC(=O)/C=C/C1=C(c2ccc(C)cc2)C2=Nc3c(-c4ccc(C)cc4)c(Br)c(-c4ccc(C)cc4)n3[B-](F)(F)[N+]2=C1c1ccc(C)cc1
photoluminescence quantum yield (in ClC(Cl)Cl): 0.03

N#Cc1c(N2CCCCC2)cc(-c2ccc(-c3ccccc3)cc2)c2c1CCc1ccccc1-2
photoluminescence quantum yield (in C1CCOC1): 0.38

Cc1cc2cc(C)c3c4ccccc4[nH]c3c2o1
photoluminescence quantum yield (in ClCCl): 0.2

CCOC(=O)c1ccc(C2=Cc3ccccc3P2(=O)c2ccccc2)cc1 (centres undefined)
photoluminescence quantum yield (in ClCCl): 0.82

CC1=N/C(=C\c2ccc(N(C)C)cc2)C(=O)N1C
photoluminescence quantum yield (in C1CCCCC1): 0.0001
photoluminescence quantum yield (in C1CCOC1): 0.0004
photoluminescence quantum yield (in CC#N): 0.0003
photoluminescence quantum yield (in CO): 0.0003
photoluminescence quantum yield (in CS(C)=O): 0.0002
photoluminescence quantum yield (in ClCCl): 0.0009
photoluminescence quantum yield (in O): 0.0002

C[Si]1(C)O[Si](C)(C)c2cc3c(-c4ccccc4)c4cc(Cl)ccc4nc3cc21
photoluminescence quantum yield (in ClCCl): 0.34

COc1ccc(-c2c3ccccc3c(C#Cc3ccccc3)c3cc4ccccc4cc23)cc1
photoluminescence quantum yield (in ClCCl): 0.6

Oc1cc(-c2ccco2)ccc1-c1nc2ccccc2s1
photoluminescence quantum yield (in CCO): 0.137
photoluminescence quantum yield (in ClCCl): 0.0812
photoluminescence quantum yield (in O): 0.1

CC(C)(C)C#Cc1cc2c(C#CC(C)(C)C)c(C#CC(C)(C)C)c3cc(C#CC(C)(C)C)cc4c(C#CC(C)(C)C)c(C#CC(C)(C)C)c(c1)c2c34
photoluminescence quantum yield (in ClCCl): 0.12

COc1cccc2cc(-c3ccc([N+](=O)[O-])cc3)c(=N)oc12
photoluminescence quantum yield (in C1CCOC1): 0.004
photoluminescence quantum yield (in CC#N): 0.0016
photoluminescence quantum yield (in CS(C)=O): 0.0021
photoluminescence quantum yield (in ClC(Cl)Cl): 0.023

N#Cc1ccc(-c2pc3ccccc3s2)cc1 (centres undefined)
photoluminescence quantum yield (in CC#N): 0.017

COc1ccc(/C=C(\C)c2nc3ccccc3o2)cc1
photoluminescence quantum yield (in C1CCCCC1): 0.002

CCCCc1cc2cccc[n+]2[b-]2c(-c3cccc4[b-]3[n+]3ccccc3cc4CCCC)cccc21
photoluminescence quantum yield (in C1CCCCC1): 0.03

CC1(C)CCc2c(c3ccccc3c3nc4c(nc23)c2c(c3ccccc34)OC(C)(C)CC2)O1
photoluminescence quantum yield (in C1CCCCC1): 0.33
photoluminescence quantum yield (in C1COCCO1): 0.47
photoluminescence quantum yield (in CC#N): 0.28
photoluminescence quantum yield (in CC(C)O): 0.4
photoluminescence quantum yield (in CCCCCC): 0.37
photoluminescence quantum yield (in ClC(Cl)Cl): 0.42
photoluminescence quantum yield (in c1ccccc1): 0.29

CC(C)[Si](C#Cc1ccc(C#C[Si](C(C)C)(C(C)C)C(C)C)c2nc3c(ccc4ccccc43)nc12)(C(C)C)C(C)C
photoluminescence quantum yield (in CCCCCC): 0.05

CC(O)CC1=N/C(=C\c2cccc(N(C)C)c2)C(=O)N1C (centres undefined)
photoluminescence quantum yield (in C1CCOC1): 0.11
photoluminescence quantum yield (in CC#N): 0.03
photoluminescence quantum yield (in CCCCCC): 0.37

CCCCN(CCCC)c1ccc(/C=C/c2ccc3nc(/C=C/c4nc5ccc(/C=C/c6ccc(N(CCCC)CCCC)cc6)cc5n(CCC)c4=O)c(=O)n(CCC)c3c2)cc1
photoluminescence quantum yield (in C1COCCO1): 0.18
photoluminescence quantum yield (in ClCCl): 0.01

Cc1ccc(/C=C/c2nc(-c3cccc([N+](=O)[O-])c3)[nH]c2/C=C/c2ccc(C)cc2)cc1
photoluminescence quantum yield (in ClCCl): 0

F[B-]1(F)n2c(nc3c4ccccc4c4ccccc4c32)-c2cccc[n+]21
photoluminescence quantum yield (in CC#N): 0.08
photoluminescence quantum yield (in CCCCCC): 0.95
photoluminescence quantum yield (in CO): 0.14
photoluminescence quantum yield (in ClC(Cl)Cl): 0.3
photoluminescence quantum yield (in ClCCl): 0.32

C[Si](C)(c1c2ccccc2cc2ccccc12)[Si](C)(C)c1c2ccccc2cc2ccccc12
photoluminescence quantum yield (in C1CCCCC1): 0.07
photoluminescence quantum yield (in CC#N): 0.07

COc1nnc(Cl)nn1
photoluminescence quantum yield (in ClCCl): 0.38
photoluminescence quantum yield (in OCC(F)(F)F): 0.26

F[B-]1(F)n2c(c(-c3ccccc3)c3c2C2=Cc4ccccc4OC2CC3)C=C2C(c3ccccc3)=C3CCC4Oc5ccccc5C=C4C3=[N+]21 (centres undefined)
photoluminescence quantum yield (in ClC(Cl)Cl): 0.06

Cc1ccc(C)n1-c1ccccc1
photoluminescence quantum yield (in CC#N): 0.012
photoluminescence quantum yield (in CCCCCC): 0.005

N#C/C(=N/Nc1ccc(C#N)cc1)c1nc(-c2ccccc2)cs1
photoluminescence quantum yield (in CC#N): 0
photoluminescence quantum yield (in CCO): 0.0001
photoluminescence quantum yield (in CN(C)C=O): 0
photoluminescence quantum yield (in Cc1ccccc1): 0.0001
photoluminescence quantum yield (in ClCCl): 0.0001

CCCCc1ccc(C#Cc2ccc3nc4ccc(C#Cc5ccc(CCCC)cc5)cn4c(=O)c3c2)cc1
photoluminescence quantum yield (in ClCCl): 0.48

COc1ccc(C#Cc2ccc(C#Cc3ccc(C#Cc4ccccc4C#N)cc3C#N)cc2C#N)cc1
photoluminescence quantum yield (in C1CCOC1): 0.972
photoluminescence quantum yield (in CC#N): 0.973
photoluminescence quantum yield (in CN(C)C=O): 0.949
photoluminescence quantum yield (in ClC(Cl)Cl): 0.982
photoluminescence quantum yield (in c1ccccc1): 0.972

CC(=O)OC[C@H]1O[C@@H](OCC#Cc2ccc(C3=C4C(C)=CC(/C=C/c5ccc(N(C)C)cc5)=[N+]4[B-](F)(F)n4c(/C=C/c5ccc(N(C)C)cc5)cc(C)c43)cc2)[C@H](OC(C)=O)C(OC(C)=O)[C@@H]1OC(C)=O (some centres undefined)
photoluminescence quantum yield (in CC#N): 0.2

c1ccc2c(c1)c1ccccc1n2-c1ccc2c(c1)c1ccccc1n2-c1cc2c3ccccc3n3c4ccccc4c(c1)c23
photoluminescence quantum yield [1]: 0.53

CN1c2cc3nc4cc(F)c(F)cc4nc3cc2N(C)C1(C)C
photoluminescence quantum yield (in CCO): 0.8

CCN(CC)c1ccc(/C=N/CC/N=C/c2ccc(N(CC)CC)cc2O)c(O)c1
photoluminescence quantum yield (in CC#N): 0.13

CCCCCCCCCCCCCCCCCCN1C(=O)c2ccc3c4ccc5c6c(ccc(c7ccc(c2c37)C1=O)c64)C(=O)N(CCCCCCCCCCCCCCCCCC)C5=O
photoluminescence quantum yield (in CN(C)C=O): 0.8

COc1ccc(-c2nc(-c3ccc(OC)cc3C)nc(-c3ccc(N4c5ccccc5C5(c6ccccc6-c6ccccc65)c5ccccc54)cc3C)n2)c(C)c1
photoluminescence quantum yield [1]: 0.51

CCOC(=O)/C(C#N)=C\c1ccc2c(c1)c1ccccc1n2-c1ccc(OC)cc1
photoluminescence quantum yield (in C1CCOC1): 0.13
photoluminescence quantum yield (in CC#N): 0.04
photoluminescence quantum yield (in CC(C)=O): 0.05
photoluminescence quantum yield (in CCOC(C)=O): 0.08
photoluminescence quantum yield (in CO): 0.02
photoluminescence quantum yield (in CS(C)=O): 0.03
photoluminescence quantum yield (in Cc1ccccc1): 0.14
photoluminescence quantum yield (in ClC(Cl)Cl): 0.09

CC(C)(C)c1ccc(-c2c(-c3ccc(N(c4ccccc4)c4ccccc4)cc3)cc(-c3ccc(N(c4ccccc4)c4ccccc4)cc3)c(-c3ccc(C(C)(C)C)cc3)c2-c2ccc(C(C)(C)C)cc2)cc1
photoluminescence quantum yield (in C1CCOC1): 0.587

CCOC(=O)c1cc(C(=O)O)nc2cc(OC)ccc12
photoluminescence quantum yield (in CCO): 0.15

Cc1cc(C)c(B(c2cc(-c3ccc(C(C)(C)C)cc3)sc2-c2sc(-c3ccc(C(C)(C)C)cc3)cc2P(=O)(c2ccccc2)c2ccccc2)c2c(C)cc(C)cc2C)c(C)c1
photoluminescence quantum yield (in CO): 0.54

O=C1c2cccc3c(-n4c5ccccc5c5ccccc54)ccc(c23)C(=O)N1C1CCCCC1
photoluminescence quantum yield (in C1CCOC1): 0.033
photoluminescence quantum yield (in CCCCCC): 0.872
photoluminescence quantum yield (in ClC(Cl)Cl): 0.21
photoluminescence quantum yield (in ClCCl): 0.03

c1ccc2c(c1)ncc1ccc3cnc4ccccc4c3c12
photoluminescence quantum yield (in CC#N): 0.14

Cc1cc(C)c(B(c2ccc(-c3nc4c5ccccc5c5ccccc5c4[nH]3)cc2)c2c(C)cc(C)cc2C)c(C)c1
photoluminescence quantum yield (in C1CCOC1): 0.79
photoluminescence quantum yield (in CC(C)=O): 0.71
photoluminescence quantum yield (in CS(C)=O): 0.76
photoluminescence quantum yield (in Cc1ccccc1): 0.92
photoluminescence quantum yield (in ClCCl): 0.8

CN(C)c1ccc(-c2nc3cccnc3[nH]2)cc1
photoluminescence quantum yield (in C1CCCCC1): 0.72
photoluminescence quantum yield (in CC#N): 0.76

Cc1cc(C)c(B2c3cc(C(C)(C)C)ccc3-c3c(-c4ccccc4)ccc4cc(C(C)(C)C)cc2c34)c(C)c1
photoluminescence quantum yield (in C1CCCCC1): 0.91

CC(C)c1ccc(/C=C/c2nc3ccc(N(C)C)cc3s2)cc1
photoluminescence quantum yield (in C1CCCCC1): 0.51
photoluminescence quantum yield (in CC#N): 0.54
